# From patent US20190032104A1, “RAPID ANTIMICROBIAL SUSCEPTIBILITY TESTING USING HIGH-SENSITIVITY DIRECT DETECTION METHODS” (T2 Biosystems, Inc., priority 2016, published 2019)
# Columns and labels:
# [1] = system: Candida albicans; assay: administration to the subject with Candidemia (Candida albicans); assay type: in vivo, human
# [2] = system: Candida albicans isolate; assay: AST testing of isolated colonies, agar-based AST method (e.g., ETEST) or full panel AST device (e.g., VITEK 2); assay type: cell-based; settings: Candida albicans isolate from subject's blood, Example 2
# Protocol: (§1) A blood sample is obtained from a subject suspected to be suffering from Candidemia. A portion of the blood sample is used to inoculate a blood culture bottle (e.g., a BD BACTEC™ aerobic blood culture bottle). The blood culture bottles are incubated as recommended by the manufacturer. In parallel, an aliquot of the blood sample obtained from the patient is subjected to a T2MR-based detection method, for example, as described in Example 1 above. In this example, the T2MR-based method identifies Candida albicans as being present in the blood sample.
# Next, based on the identification of Candida albicans in the blood sample, the blood culture bottle is sampled by lysis filtration or lysis centrifugation followed by plating of the cell pellet on to Samouraud Glucose media, thereby encouraging growth of Candida albicans and early growth of the isolated colonies. These colonies are subjected to AST testing, either using an agar-based AST method (e.g., ETEST®) or a full panel AST device (e.g., VITEK® 2). Several appropriate anti-fungal drugs are tested, e.g., fluconazole, itraconazole, amphotericin B, micafungin, voriconazole, and caspofungin.
# [3] = system: C. glabrata isolate; assay: T2MR-based AST, real-time PCR of housekeeping gene as proxy for growth; assay type: cell-based, Candida glabrata; settings: media with pre-determined levels of agent, Example 4
# Protocol: A blood sample is obtained from a subject suspected to be suffering from Candidemia. The blood sample obtained from the patient is subjected to a T2MR-based detection method, for example, the method described in Example 22 of WO 2012/054639 in conjunction with a T2Dx® device. Briefly, PCR is performed using a forward primer that includes the oligonucleotide sequence 5′-GGCATGCCTGTTTGAGCGTC-3′ (SEQ ID NO: 13) and a reverse primer that includes the oligonucleotide sequence 5′-GCTTATTGATATGCTTAAGTTCAGCGGGT-3′ (SEQ ID NO: 14). Magnetic particles conjugated individually to the capture probes described in Table 1 are used to test for the presence of Candida albicans, Candida glabrata, Candida krusei, Candida parapsilosis, and Candida tropicalis. In this example, Candida glabrata is identified as being present in the subject's blood sample within 3 h from the start of the assay.
# Based on the T2MR-based detection and identification of Candida glabrata in the subject's blood, a subsequent blood draw is taken directly to media that contain either no antimicrobial agents or pre-determined levels of fluconazole, itraconazole, amphotericin B, or caspofungin. […]
# [4] = system: C. albicans isolate; assay: as above; assay type: cell-based, Candida albicans; settings: media with pre-determined levels of agent, Example 5
# Protocol: A blood sample is obtained from a subject suspected to be suffering from Candidemia. The blood sample obtained from the patient is subjected to a T2MR-based detection method, for example, as described above in Example 4. In this example, Candida albicans is identified as being present in the subject's blood sample within 3 h from the start of the assay.
# Based on the T2MR-based detection and identification of Candida albicans in the subject's blood, a subsequent blood draw is taken directly to media that contain either no antimicrobial agents or pre-determined levels of antimicrobial agents such as fluconazole, itraconazole, amphotericin B, and caspofungin. Aliquots are taken from these media at time intervals, and the aliquots are subjected to T2MR-based real-time PCR is performed as described, for example, in Example 19 of WO 2012/054639, to detect the expression level of the multiple drug resistance gene MDR1 as well as a housekeeping gene such as beta-actin (ACT1) as a proxy for growth of the C. albicans isolate in the media. […] A growth curve is made by plotting the T2 signal over time.
# [5] = system: Candida glabrata; assay: administration to the subject with Candidemia (Candida glabrata); assay type: in vivo, human; settings: appropriate dose, subject with Candidemia (C. glabrata), Example 4
# [6] = system: S. aureus isolate; assay: growth on chromogenic media (e.g., CHROMAGAR MRSA); assay type: cell-based; settings: Example 3
# Protocol: as §1, with “from bacteremia.” for “from Candidemia.”, “example, the method” for “example, as”, “Example 22 of WO 2012/054639 in conjunction with a T2Dx® device.” for “Example 1 above.”, “identifies S. aureus” for “identifies Candida albicans”, “blood sample within 3 hours from the start of the assay.” for “blood sample.”
# (§2) Next, based on the identification of S. aureus in the blood sample, the blood culture bottle is sampled by lysis filtration or lysis centrifugation followed by plating of the cell pellet on to chromogenic media (e.g., CHROMAGAR™ MRSA (Chromagar)) or directly on to an agar-based antimicrobial gradient test (e.g., an ETEST®) in order to test whether the S. aureus isolate from the subject's blood is sensitive to oxacillin, vancomycin, trimethoprim-sulfamethoxazole (BACTRIM™), doxycycline, daptomycin, and linezolid. Additionally, T2MR-based real-time PCR is performed as described, for example, in Example 19 of WO 2012/054639, is used to determine the expression level of antibiotic resistance markers such as mecA. […]
# [7] = system: S. aureus isolate; assay: T2MR-based AST with direct cell detection by vancomycin-conjugated magnetic nanoparticles; settings: media with pre-determined levels of agent, Example 6
# Protocol: as §1, with “In one such example, a blood” for “A blood”, “from bacteremia.” for “from Candidemia.”, “example, the method” for “example, as”, “Example 22 of WO 2012/054639 in conjunction with a T2Dx® device.” for “Example 1 above.”, “identifies S. aureus” for “identifies Candida albicans”, “blood sample within 3 hours from the start of the assay.” for “blood sample.”
# Based on the T2MR-based detection and identification of S. aureus in the subject's blood, a subsequent blood draw is taken directly to media that contain either no antimicrobial agents or pre-determined levels of oxacillin, vancomycin, trimethoprim-sulfamethoxazole (BACTRIM™), doxycycline, daptomycin, or linezolid. Aliquots are taken from these media at time intervals, and the aliquots are subjected to T2MR-based direct detection of S. aureus cells, as described, for example, in Example 4 of International Patent Publication No. WO 2012/129281. S. aureus cells are detected by labeling with magnetic nanoparticles. […]
# [8] = system: S. aureus; assay: administration to the subject with bacteremia (S. aureus); assay type: in vivo, human
# [9] = system: S. aureus isolate; assay: agar-based antimicrobial gradient test (e.g., ETEST); assay type: cell-based; settings: S. aureus isolate from subject's blood, Example 3
# Protocol: as §1, with “from bacteremia.” for “from Candidemia.”, “example, the method” for “example, as”, “Example 22 of WO 2012/054639 in conjunction with a T2Dx® device.” for “Example 1 above.”, “identifies S. aureus” for “identifies Candida albicans”, “blood sample within 3 hours from the start of the assay.” for “blood sample.”
# as §2
compound,measurement,setting,value
C[C@@H]1[C@H](O)[C@@H](C)/C=C/C=C/C=C/C=C/C=C/C=C/C=C/[C@H](O[C@@H]2O[C@H](C)[C@@H](O)[C@H](N)[C@@H]2O)C[C@@H]2O[C@](O)(C[C@@H](O)C[C@@H](O)[C@H](O)CC[C@@H](O)C[C@@H](O)CC(=O)O[C@H]1C)C[C@H](O)[C@H]2C(=O)O [amphotericin B],treatment outcome in the subject after switch from fluconazole,"[1]; MDR1 expression elevated after fluconazole, therapy switched, Example 5",successful in treating the subject
OC(Cn1cncn1)(Cn1cncn1)c1ccc(F)cc1F [fluconazole],antimicrobial susceptibility of the isolate,[2],particularly sensitive
same,"antimicrobial susceptibility of the isolate, growth curve of T2 signal over time",[3],particularly sensitive
same,"antimicrobial susceptibility of the isolate, growth curve of T2 signal over time",[4],particularly sensitive
same,treatment outcome in the subject,"[1]; appropriate dose, subject with Candidemia (C. albicans)",treating the subject's Candidemia
same,treatment outcome in the subject,[5],treating the subject's Candidemia
COc1cccc(OC)c1C(=O)N[C@@H]1C(=O)N2[C@@H]1SC(C)(C)[C@@H]2C(=O)O [methicillin],"antimicrobial resistance of the isolate, based on the color of the colonies",[6],resistant
CN[C@H](CC(C)C)C(=O)N[C@H]1C(=O)N[C@@H](CC(N)=O)C(=O)N[C@H]2C(=O)N[C@H]3C(=O)N[C@H](C(=O)N[C@H](C(=O)O)c4cc(O)cc(O)c4-c4cc3ccc4O)[C@H](O)c3ccc(c(Cl)c3)Oc3cc2cc(c3O[C@@H]2O[C@H](CO)[C@@H](O)[C@H](O)[C@H]2O[C@H]2C[C@](C)(N)[C@H](O)[C@H](C)O2)Oc2ccc(cc2Cl)[C@H]1O [vancomycin],"antimicrobial susceptibility of the isolate, growth curve of T2 signal over time",[7],particularly sensitive
same,treatment outcome in the subject,[8],treating the subject's bacteremia
trimethoprim-sulfamethoxazole,antimicrobial susceptibility of the isolate,[9],sensitive
same,treatment outcome in the subject,[8],treating the bacteremia
